Assay results taken from the supplement of paper PMC10307832.

Legend:
Assay in all cases: relative viability (nuclei count vs DMSO), 5 days (fraction); higher = more cells survive
NCI-H1792 = system: NCI-H1792
In short: (§1)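 Lung cancer cell lines in 1536-well plates were dosed by pin tool the day after seeding, either with one drug alone or with a fixed anchor-drug dose plus five library-drug doses (not always all listed) in √10 steps. After 5 days, cells were fixed and their nuclei stained in one step (final 0.05% Triton X-100, 1% formaldehyde, 1 ug/ml Hoechst), then counted on 4× images. Relative viability is the nuclei count in treated wells divided by that in vehicle wells. Values are medians of duplicate plates.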

LC-2-ad = system: LC-2-ad
In short: as §1

NCI-H2085 = system: NCI-H2085
In short: as §1

LXF-289 = system: LXF-289
In short: as §1

NCI-H460 = system: NCI-H460
In short: as §1

NCI-H1944 = system: NCI-H1944
In short: as §1

HCC-78 = system: HCC-78
In short: as §1

LU99A = system: LU99A
In short: as §1

NCI-H1755 = system: NCI-H1755
In short: as §1

COR-L 105 = system: COR-L 105
In short: as §1

NCI-H1975 = system: NCI-H1975
In short: as §1

HCC-366 = system: HCC-366
In short: as §1

EPLC-272H = system: EPLC-272H
In short: as §1

A-427 = system: A-427
In short: as §1

NCI-H1915 = system: NCI-H1915
In short: as §1

NCI-H358 = system: NCI-H358
In short: as §1

HOP-62 = system: HOP-62
In short: as §1

LCLC-97TM1 = system: LCLC-97TM1
In short: as §1

SK-LU-1 = system: SK-LU-1
In short: as §1

NCI-H1793 = system: NCI-H1793
In short: as §1

UMC-11 = system: UMC-11
In short: as §1

## C=C1C(=O)O[C@@H](CCCCCCCC)[C@@H]1C(=O)O [C-75] + C[C@]1(O)C[C@@H](c2nc(-c3ccc4ccc(-c5ccccc5)nc4c3)c3c(N)nccn32)C1 [Linsitinib] (partner 1 µM)
NCI-H1792; first compound 0.08 µM
  relative viability: 0.527
NCI-H1792; first compound 0.253 µM
  relative viability: 0.486
NCI-H1792; first compound 0.8 µM
  relative viability: 0.471
NCI-H1792; first compound 2.53 µM
  relative viability: 0.377
NCI-H1792; first compound 8 µM
  relative viability: 0.544
LC-2-ad; first compound 0.08 µM
  relative viability: 0.869
LC-2-ad; first compound 0.253 µM
  relative viability: 0.865
LC-2-ad; first compound 0.8 µM
  relative viability: 0.798
LC-2-ad; first compound 8 µM
  relative viability: 0.855
NCI-H2085; first compound 0.08 µM
  relative viability: 0.935
NCI-H2085; first compound 0.253 µM
  relative viability: 0.801
NCI-H2085; first compound 0.8 µM
  relative viability: 0.88
NCI-H2085; first compound 2.53 µM
  relative viability: 0.806
NCI-H2085; first compound 8 µM
  relative viability: 0.792
LXF-289; first compound 0.08 µM
  relative viability: 0.925
LXF-289; first compound 0.253 µM
  relative viability: 0.979
LXF-289; first compound 0.8 µM
  relative viability: 0.953
LXF-289; first compound 2.53 µM
  relative viability: 0.94
LXF-289; first compound 8 µM
  relative viability: 0.966
NCI-H460; first compound 0.08 µM
  relative viability: 0.718
NCI-H460; first compound 0.253 µM
  relative viability: 0.823
NCI-H460; first compound 0.8 µM
  relative viability: 0.72
NCI-H460; first compound 8 µM
  relative viability: 0.582
NCI-H1944; first compound 0.08 µM
  relative viability: 1.13
NCI-H1944; first compound 0.253 µM
  relative viability: 0.961
NCI-H1944; first compound 0.8 µM
  relative viability: 1.26
NCI-H1944; first compound 8 µM
  relative viability: 1.19
HCC-78; first compound 0.08 µM
  relative viability: 0.642
HCC-78; first compound 0.253 µM
  relative viability: 0.443
HCC-78; first compound 0.8 µM
  relative viability: 0.493
HCC-78; first compound 2.53 µM
  relative viability: 0.437
HCC-78; first compound 8 µM
  relative viability: 0.522
LU99A; first compound 0.08 µM
  relative viability: 0.571
LU99A; first compound 0.253 µM
  relative viability: 0.598
LU99A; first compound 0.8 µM
  relative viability: 0.528
LU99A; first compound 2.53 µM
  relative viability: 0.412
LU99A; first compound 8 µM
  relative viability: 0.464
NCI-H1755; first compound 0.08 µM
  relative viability: 0.946
NCI-H1755; first compound 0.253 µM
  relative viability: 0.887
NCI-H1755; first compound 0.8 µM
  relative viability: 0.98
NCI-H1755; first compound 2.53 µM
  relative viability: 0.775
NCI-H1755; first compound 8 µM
  relative viability: 1.01
COR-L 105; first compound 0.08 µM
  relative viability: 0.993
COR-L 105; first compound 0.253 µM
  relative viability: 0.928
COR-L 105; first compound 0.8 µM
  relative viability: 0.89
COR-L 105; first compound 2.53 µM
  relative viability: 0.946
COR-L 105; first compound 8 µM
  relative viability: 0.886
NCI-H1975; first compound 0.08 µM
  relative viability: 0.958
NCI-H1975; first compound 0.253 µM
  relative viability: 1.02
NCI-H1975; first compound 0.8 µM
  relative viability: 0.945
NCI-H1975; first compound 2.53 µM
  relative viability: 0.897
NCI-H1975; first compound 8 µM
  relative viability: 0.898
HCC-366; first compound 0.08 µM
  relative viability: 0.629
HCC-366; first compound 0.253 µM
  relative viability: 0.645
HCC-366; first compound 0.8 µM
  relative viability: 0.558
HCC-366; first compound 8 µM
  relative viability: 0.258
EPLC-272H; first compound 0.08 µM
  relative viability: 1.05
EPLC-272H; first compound 0.253 µM
  relative viability: 1.23
EPLC-272H; first compound 0.8 µM
  relative viability: 1.07
EPLC-272H; first compound 2.53 µM
  relative viability: 0.976
EPLC-272H; first compound 8 µM
  relative viability: 1.11
A-427; first compound 0.08 µM
  relative viability: 1.16
A-427; first compound 0.253 µM
  relative viability: 1
A-427; first compound 0.8 µM
  relative viability: 1.06
A-427; first compound 2.53 µM
  relative viability: 1.07
A-427; first compound 8 µM
  relative viability: 1.09
NCI-H1915; first compound 0.08 µM
  relative viability: 1.2
NCI-H1915; first compound 0.253 µM
  relative viability: 1.17
NCI-H1915; first compound 0.8 µM
  relative viability: 0.993
NCI-H1915; first compound 2.53 µM
  relative viability: 1.05
NCI-H1915; first compound 8 µM
  relative viability: 1.07
NCI-H358; first compound 0.08 µM
  relative viability: 0.734
NCI-H358; first compound 0.253 µM
  relative viability: 0.823
NCI-H358; first compound 0.8 µM
  relative viability: 0.7
NCI-H358; first compound 2.53 µM
  relative viability: 0.602
NCI-H358; first compound 8 µM
  relative viability: 0.737
HOP-62; first compound 0.08 µM
  relative viability: 0.944
HOP-62; first compound 0.253 µM
  relative viability: 0.894
HOP-62; first compound 0.8 µM
  relative viability: 0.841
HOP-62; first compound 2.53 µM
  relative viability: 0.843
HOP-62; first compound 8 µM
  relative viability: 0.875
LCLC-97TM1; first compound 0.08 µM
  relative viability: 0.2
LCLC-97TM1; first compound 0.253 µM
  relative viability: 0.309
LCLC-97TM1; first compound 0.8 µM
  relative viability: 0.177
LCLC-97TM1; first compound 2.53 µM
  relative viability: 0.105
LCLC-97TM1; first compound 8 µM
  relative viability: 0.18
SK-LU-1; first compound 0.08 µM
  relative viability: 1.28
SK-LU-1; first compound 0.253 µM
  relative viability: 1.07
SK-LU-1; first compound 0.8 µM
  relative viability: 1.05
SK-LU-1; first compound 2.53 µM
  relative viability: 0.911
SK-LU-1; first compound 8 µM
  relative viability: 0.636
NCI-H1793; first compound 0.08 µM
  relative viability: 0.775
NCI-H1793; first compound 0.253 µM
  relative viability: 1.18
NCI-H1793; first compound 0.8 µM
  relative viability: 0.698
NCI-H1793; first compound 2.53 µM
  relative viability: 0.658
NCI-H1793; first compound 8 µM
  relative viability: 0.942
UMC-11; first compound 0.08 µM
  relative viability: 0.91
UMC-11; first compound 0.253 µM
  relative viability: 1.09
UMC-11; first compound 0.8 µM
  relative viability: 1.01
UMC-11; first compound 2.53 µM
  relative viability: 0.821
UMC-11; first compound 8 µM
  relative viability: 0.891
